Reference: article PMC6045374 (ACS Omega, 2018)

How the values were obtained:
[1] = molecular target: T1, homoserine kinase (CglThrB-A20G) (Corynebacterium glutamicum, UniProt P07128, A20G); experiment: steady-state enzyme kinetics, ADP colorimetric assay; assay type: biochemical
T1 sequence (P07128 1-309 A20G): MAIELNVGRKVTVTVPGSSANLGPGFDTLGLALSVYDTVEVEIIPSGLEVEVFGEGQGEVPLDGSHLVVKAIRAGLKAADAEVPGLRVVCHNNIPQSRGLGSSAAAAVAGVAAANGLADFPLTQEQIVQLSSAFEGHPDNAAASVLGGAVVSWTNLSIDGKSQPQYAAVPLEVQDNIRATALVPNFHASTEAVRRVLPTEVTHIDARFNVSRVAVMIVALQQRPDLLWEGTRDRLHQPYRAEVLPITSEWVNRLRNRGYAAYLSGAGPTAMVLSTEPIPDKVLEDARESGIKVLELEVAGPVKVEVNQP

[2] = molecular target: T2, homoserine kinase (CglThrB-WT) (Corynebacterium glutamicum, UniProt P07128); experiment: as above; assay type: biochemical
T2 sequence (P07128 2-309): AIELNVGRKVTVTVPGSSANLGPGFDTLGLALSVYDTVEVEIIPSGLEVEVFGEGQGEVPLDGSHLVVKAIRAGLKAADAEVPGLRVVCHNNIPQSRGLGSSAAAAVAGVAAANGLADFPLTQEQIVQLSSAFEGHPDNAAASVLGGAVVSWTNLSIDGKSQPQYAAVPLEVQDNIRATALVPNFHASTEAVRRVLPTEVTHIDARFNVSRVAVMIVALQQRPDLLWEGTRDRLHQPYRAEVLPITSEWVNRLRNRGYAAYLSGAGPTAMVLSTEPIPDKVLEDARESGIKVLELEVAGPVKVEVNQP

C[C@@H](O)[C@H](N)C(=O)O [L-threonine]
Ki [1]: 25.2 mM
Ki [2]: 4.73 mM
